In brackets after ≈: the same amount, converted by molar mass. Square brackets hold non-standard residues; d marks the D form. Peptide text beside a SMILES is read from it. * marks the point of attachment. X2 = OC[C@H](Cc1c[nH]c2ccccc12)N*; Phe(ol) = N[C@H](CO)Cc1ccccc1; X1 = COC[C@H](Cc1ccccc1)N*; Aib = CC(C)(N)C(=O)O
Assays:
[1] = Bilayer membrane permeabilization assessed as lipid to peptide ratio allowing 50% leakage of entrapped carboxyfluorescein from egg phosphatidylcholine-cholesterol liposomes at 1.36 uM at 20 mins by spectrofluorimetry; format: physicochemical
[2] = Bilayer membrane permeabilization assessed as lipid to peptide ratio allowing 50% leakage of entrapped carboxyfluorescein from egg phosphatidylcholine-cholesterol liposomes at 0.18 uM at 20 mins by spectrofluorimetry; format: physicochemical
[3] = Bilayer membrane permeabilization assessed as lipid to peptide ratio allowing 50% leakage of entrapped carboxyfluorescein from egg phosphatidylcholine-cholesterol liposomes at 0.45 uM at 20 mins by spectrofluorimetry; format: physicochemical
[4] = test system: Mycoplasmoides gallisepticum; experiment: Antimicrobial activity against Mycoplasma gallisepticum S6 after 2 hrs; format: functional; settings: for MIC: Mycoplasmoides gallisepticum, S6, 2 h
[5] = test system: Acholeplasma laidlawii; experiment: Antimicrobial activity against Acholeplasma laidlawii PG-8A after 2 hrs; format: functional; settings: for MIC: Acholeplasma laidlawii, PG-8A, 2 h
[6] = test system: Mycoplasma mycoides subsp. mycoides SC; experiment: Antimicrobial activity against Mycoplasma mycoides subsp. mycoides SC KH3J after 2 hrs; format: functional
[7] = test system: Spiroplasma floricola; experiment: Antimicrobial activity against Spiroplasma floricola BNR1 after 2 hrs; format: functional; settings: for MIC: Spiroplasma floricola, BNR1, 2 h
[8] = test system: Spiroplasma citri; experiment: Antimicrobial activity against Spiroplasma citri R8A2 after 2 hrs; format: functional; settings: R8A2, 2 h
[9] = test system: Spiroplasma apis; experiment: Antimicrobial activity against Spiroplasma apis B31 after 2 hrs; format: functional; settings: for MIC: Spiroplasma apis, B31, 2 h
[10] = Bilayer membrane permeabilization assessed as lipid to peptide ratio allowing 50% leakage of entrapped carboxyfluorescein from egg phosphatidylcholine-cholesterol liposomes at 0.36 uM at 20 mins by spectrofluorimetry; format: physicochemical
[11] = Bilayer membrane permeabilization assessed as lipid to peptide ratio allowing 50% leakage of entrapped carboxyfluorescein from egg phosphatidylcholine-cholesterol liposomes at 0.98 uM at 20 mins by spectrofluorimetry; format: physicochemical

Compound: CC[C@H](C)[C@H](NC(=O)C(C)(C)NC(=O)[C@@H](NC(=O)[C@@H]1CCCN1C(=O)C(C)(C)NC(=O)[C@H](CC(C)C)NC(=O)[C@H](CO)NC(=O)C(C)(C)NC(=O)C(C)(C)NC(=O)C(C)(C)NC(=O)[C@H](CCC(N)=O)NC(=O)C(C)(C)NC(=O)C(C)(C)NC(=O)[C@H](C)NC(=O)[C@H](C)NC(=O)C(C)(C)NC(C)=O)C(C)C)C(=O)N[C@@H](CCC(N)=O)C(=O)N[C@@H](CCC(=O)O)C(=O)N[C@H](CO)Cc1c[nH]c2ccccc12 (Ac-[Aib]AA[Aib][Aib]Q[Aib][Aib][Aib]SL[Aib]PV[Aib]IQE-X2)
- Ratio [1]: 295

Compound: CC[C@H](C)[C@H](NC(=O)C(C)(C)NC(=O)[C@@H](NC(=O)[C@@H]1CCCN1C(=O)C(C)(C)NC(=O)[C@H](CC(C)C)NC(=O)[C@H](CO)NC(=O)C(C)(C)NC(=O)C(C)(C)NC(=O)C(C)(C)NC(=O)[C@H](CCC(N)=O)NC(=O)C(C)(C)NC(=O)C(C)(C)NC(=O)[C@H](C)NC(=O)[C@H](C)NC(=O)C(C)(C)NC(C)=O)C(C)C)C(=O)N[C@@H](CCC(N)=O)C(=O)N[C@@H](CCC(N)=O)C(=O)N[C@H](CO)Cc1c[nH]c2ccccc12 (Ac-[Aib]AA[Aib][Aib]Q[Aib][Aib][Aib]SL[Aib]PV[Aib]IQQ-X2)
- Ratio [2]: 2220

Compound: COC[C@H](Cc1ccccc1)NC(=O)[C@H](CCC(N)=O)NC(=O)[C@H](CCC(=O)O)NC(=O)C(C)(C)NC(=O)C(C)(C)NC(=O)[C@@H](NC(=O)[C@@H]1CCCN1C(=O)C(C)(C)NC(=O)[C@H](CC(C)C)NC(=O)CNC(=O)C(C)(C)NC(=O)[C@@H](NC(=O)C(C)(C)NC(=O)[C@H](CCC(N)=O)NC(=O)[C@H](C)NC(=O)C(C)(C)NC(=O)[C@H](C)NC(=O)C(C)(C)NC(=O)[C@H](C)NC(=O)C(C)(C)NC(C)=O)C(C)C)C(C)C (Ac-[Aib]A[Aib]A[Aib]AQ[Aib]V[Aib]GL[Aib]PV[Aib][Aib]EQ-X1)
- Ratio [3]: 1335

Compound: CC(=O)NC(C)(C)C(=O)N[C@@H](C)C(=O)NC(C)(C)C(=O)N[C@@H](C)C(=O)NC(C)(C)C(=O)N[C@@H](C)C(=O)N[C@@H](CCC(N)=O)C(=O)NC(C)(C)C(=O)N[C@H](C(=O)NC(C)(C)C(=O)NCC(=O)N[C@@H](CC(C)C)C(=O)NC(C)(C)C(=O)N1CCC[C@H]1C(=O)N[C@H](C(=O)NC(C)(C)C(=O)NC(C)(C)C(=O)N[C@@H](CCC(=O)O)C(=O)N[C@@H](CCC(N)=O)C(=O)N[C@H](CO)Cc1ccccc1)C(C)C)C(C)C (Ac-[Aib]A[Aib]A[Aib]AQ[Aib]V[Aib]GL[Aib]PV[Aib][Aib]EQ[Phe(ol)])
- MLC [4]: 3.12 µM (≈ 6.05 µg/mL)
- MIC [4]: 6.25 µM (≈ 12.1 µg/mL)
- MLC [5]: 3.12 µM (≈ 6.05 µg/mL)
- MIC [5]: 1.56 µM (≈ 3.02 µg/mL)
- MIC [6]: 12.5 µM (≈ 24.2 µg/mL)
- MLC [7]: 3.12 µM (≈ 6.05 µg/mL)
- MIC [7]: 12.5 µM (≈ 24.2 µg/mL)
- MIC [8]: 6.25 µM (≈ 12.1 µg/mL)
- MLC [9]: 3.12 µM (≈ 6.05 µg/mL)
- MIC [9]: 12.5 µM (≈ 24.2 µg/mL)

Compound: CC(=O)NC(C)(C)C(=O)N[C@@H](C)C(=O)NC(C)(C)C(=O)N[C@@H](C)C(=O)NC(C)(C)C(=O)N[C@@H](C)C(=O)N[C@@H](CCC(N)=O)C(=O)NC(C)(C)C(=O)N[C@H](C(=O)NC(C)(C)C(=O)NCC(=O)N[C@@H](CC(C)C)C(=O)NC(C)(C)C(=O)N1CCC[C@H]1C(=O)N[C@H](C(=O)NC(C)(C)C(=O)NC(C)(C)C(=O)N[C@@H](CCC(N)=O)C(=O)N[C@@H](CCC(N)=O)C(=O)N[C@H](CO)Cc1ccccc1)C(C)C)C(C)C (Ac-[Aib]A[Aib]A[Aib]AQ[Aib]V[Aib]GL[Aib]PV[Aib][Aib]QQ[Phe(ol)])
- Ratio [10]: 1667

Compound: CC(=O)NC(C)(C)C(=O)N[C@@H](C)C(=O)NC(C)(C)C(=O)N[C@@H](C)C(=O)NC(C)(C)C(=O)NC(C)(C)C(=O)N[C@@H](CCC(N)=O)C(=O)NC(C)(C)C(=O)N[C@H](C(=O)NC(C)(C)C(=O)NCC(=O)N[C@@H](CC(C)C)C(=O)NC(C)(C)C(=O)N1CCC[C@H]1C(=O)N[C@H](C(=O)NC(C)(C)C(=O)NC(C)(C)C(=O)N[C@@H](CCC(N)=O)C(=O)N[C@@H](CCC(N)=O)C(=O)N[C@H](CO)Cc1ccccc1)C(C)C)C(C)C (Ac-[Aib]A[Aib]A[Aib][Aib]Q[Aib]V[Aib]GL[Aib]PV[Aib][Aib]QQ[Phe(ol)])
- Ratio [11]: 1820

Compound: CC(=O)NC(C)(C)C(=O)N1CCC[C@H]1C(=O)NC(C)(C)C(=O)N[C@@H](C)C(=O)NC(C)(C)C(=O)N[C@@H](C)C(=O)N[C@@H](CCC(N)=O)C(=O)NC(C)(C)C(=O)N[C@H](C(=O)NC(C)(C)C(=O)NCC(=O)N[C@@H](CC(C)C)C(=O)NC(C)(C)C(=O)N1CCC[C@H]1C(=O)N[C@H](C(=O)NC(C)(C)C(=O)NC(C)(C)C(=O)N[C@@H](CCC(N)=O)C(=O)N[C@@H](CCC(N)=O)C(=O)N[C@H](CO)Cc1ccccc1)C(C)C)C(C)C [ALAMETHICIN F50] (Ac-[Aib]P[Aib]A[Aib]AQ[Aib]V[Aib]GL[Aib]PV[Aib][Aib]QQ[Phe(ol)])
- MIC [4]: 6.25 µM (≈ 12.3 µg/mL)
- MIC [5]: 1.56 µM (≈ 3.06 µg/mL)
- MIC [6]: 12.5 µM (≈ 24.5 µg/mL)
- MIC [7]: 6.25 µM (≈ 12.3 µg/mL)
- MIC [8]: 3.12 µM (≈ 6.13 µg/mL)
- MIC [9]: 6.25 µM (≈ 12.3 µg/mL)
